# Experimental data reported in publication PMC3000800 (Bioorganic & medicinal chemistry letters, 2010).
# What was measured:
# [1] = biological target: native α7 nAChR in rat brain membranes (Rattus norvegicus, UniProt Q05941); experiment: biochemical; assay type: binding; conditions: for inhibition at 10 µM: read-out: Percent binding/inhibition, α7 receptor (selectivity study)
# [2] = biological target: human α7 nAChR (Homo sapiens, UniProt P36544); experiment: cell-based
# [3] = biological target: neuronal α4β2 nAChRs (Rattus norvegicus, UniProt P09483+P12390); experiment: biochemical; conditions: read-out: Percent binding/inhibition, neuronal α4β2
# [4] = biological target: muscle-type nAChR (Homo sapiens, UniProt P02708+P07510+Q07001); assay type: binding
# [5] = biological target: T1, human 5HT3 receptor (Homo sapiens, UniProt P46098); experiment: biochemical; conditions: read-out: Percent binding/inhibition, 5HT3 receptor
# T1 sequence (P46098 24-478): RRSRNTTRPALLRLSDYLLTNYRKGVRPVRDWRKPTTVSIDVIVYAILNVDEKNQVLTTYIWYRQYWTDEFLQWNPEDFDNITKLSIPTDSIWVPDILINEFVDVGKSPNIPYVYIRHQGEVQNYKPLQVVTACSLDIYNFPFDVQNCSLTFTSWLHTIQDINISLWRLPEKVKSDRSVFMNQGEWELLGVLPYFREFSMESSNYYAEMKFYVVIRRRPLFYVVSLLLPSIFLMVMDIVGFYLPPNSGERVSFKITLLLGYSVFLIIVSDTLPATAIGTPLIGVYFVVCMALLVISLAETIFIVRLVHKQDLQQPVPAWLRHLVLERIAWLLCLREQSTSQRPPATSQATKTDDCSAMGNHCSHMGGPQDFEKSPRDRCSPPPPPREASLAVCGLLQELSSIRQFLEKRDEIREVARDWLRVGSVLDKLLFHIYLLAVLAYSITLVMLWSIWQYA
# [6] = system: DFP-induced seizure-like behaviors; conditions: mouse, in vivo
# [7] = male, C57Bl/6, mouse, in vivo, ip, 10 mg/kg
# native α7 nAChR in rat brain membranes, sequence (Q05941 23-502): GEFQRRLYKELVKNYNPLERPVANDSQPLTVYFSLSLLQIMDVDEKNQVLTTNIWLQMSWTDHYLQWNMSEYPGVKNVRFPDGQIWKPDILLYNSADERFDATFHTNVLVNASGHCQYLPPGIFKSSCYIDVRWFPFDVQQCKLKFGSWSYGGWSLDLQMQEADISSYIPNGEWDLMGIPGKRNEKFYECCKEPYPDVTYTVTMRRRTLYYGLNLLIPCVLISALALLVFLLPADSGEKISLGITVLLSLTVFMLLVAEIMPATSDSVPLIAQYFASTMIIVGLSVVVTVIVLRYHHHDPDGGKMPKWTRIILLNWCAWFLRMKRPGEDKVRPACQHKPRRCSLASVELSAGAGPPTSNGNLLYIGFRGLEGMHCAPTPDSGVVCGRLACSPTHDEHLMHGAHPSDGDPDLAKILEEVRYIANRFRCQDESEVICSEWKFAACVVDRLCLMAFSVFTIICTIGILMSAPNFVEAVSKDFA
# muscle-type nAChR, sequence (P02708 21-457): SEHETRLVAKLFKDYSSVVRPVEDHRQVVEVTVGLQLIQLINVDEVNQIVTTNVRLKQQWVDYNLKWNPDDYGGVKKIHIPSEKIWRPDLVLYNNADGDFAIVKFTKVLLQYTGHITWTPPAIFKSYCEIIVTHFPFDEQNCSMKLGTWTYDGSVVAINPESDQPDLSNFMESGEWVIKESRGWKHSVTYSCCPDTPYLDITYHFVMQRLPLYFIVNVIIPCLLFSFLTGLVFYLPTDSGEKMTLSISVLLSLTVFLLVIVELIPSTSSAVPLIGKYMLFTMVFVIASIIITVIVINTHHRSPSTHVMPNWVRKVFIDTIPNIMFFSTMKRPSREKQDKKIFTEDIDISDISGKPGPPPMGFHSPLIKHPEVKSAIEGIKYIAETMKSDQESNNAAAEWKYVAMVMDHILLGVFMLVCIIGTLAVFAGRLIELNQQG
# muscle-type nAChR, sequence (P07510 23-517): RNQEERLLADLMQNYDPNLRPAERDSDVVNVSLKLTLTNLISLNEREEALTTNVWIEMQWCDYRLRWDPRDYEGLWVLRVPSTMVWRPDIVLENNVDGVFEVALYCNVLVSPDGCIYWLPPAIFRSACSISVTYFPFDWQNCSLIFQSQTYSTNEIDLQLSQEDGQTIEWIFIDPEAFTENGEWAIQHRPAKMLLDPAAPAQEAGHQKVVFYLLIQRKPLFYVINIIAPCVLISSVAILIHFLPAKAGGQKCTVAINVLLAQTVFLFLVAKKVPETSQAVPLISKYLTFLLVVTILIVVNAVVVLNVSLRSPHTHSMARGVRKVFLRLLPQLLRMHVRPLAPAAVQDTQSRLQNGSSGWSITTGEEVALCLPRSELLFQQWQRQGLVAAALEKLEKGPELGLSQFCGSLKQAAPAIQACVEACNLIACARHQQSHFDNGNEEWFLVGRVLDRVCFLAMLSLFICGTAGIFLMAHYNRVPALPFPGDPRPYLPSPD
# muscle-type nAChR, sequence (P11230 24-501, further chain): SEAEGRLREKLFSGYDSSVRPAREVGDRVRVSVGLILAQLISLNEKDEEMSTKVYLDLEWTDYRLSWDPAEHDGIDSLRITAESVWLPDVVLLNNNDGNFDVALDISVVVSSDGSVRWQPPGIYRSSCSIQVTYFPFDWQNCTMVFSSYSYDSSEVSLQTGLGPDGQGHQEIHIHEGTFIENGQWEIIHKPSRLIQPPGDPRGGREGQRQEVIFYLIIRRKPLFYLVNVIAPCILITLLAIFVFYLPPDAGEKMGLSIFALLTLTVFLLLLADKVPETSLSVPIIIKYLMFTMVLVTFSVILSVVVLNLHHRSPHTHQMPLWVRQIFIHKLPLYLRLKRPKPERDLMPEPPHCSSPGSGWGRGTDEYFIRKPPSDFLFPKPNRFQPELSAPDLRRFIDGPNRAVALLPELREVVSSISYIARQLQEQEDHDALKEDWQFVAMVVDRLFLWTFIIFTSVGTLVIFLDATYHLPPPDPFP
# muscle-type nAChR, sequence (Q07001 22-517): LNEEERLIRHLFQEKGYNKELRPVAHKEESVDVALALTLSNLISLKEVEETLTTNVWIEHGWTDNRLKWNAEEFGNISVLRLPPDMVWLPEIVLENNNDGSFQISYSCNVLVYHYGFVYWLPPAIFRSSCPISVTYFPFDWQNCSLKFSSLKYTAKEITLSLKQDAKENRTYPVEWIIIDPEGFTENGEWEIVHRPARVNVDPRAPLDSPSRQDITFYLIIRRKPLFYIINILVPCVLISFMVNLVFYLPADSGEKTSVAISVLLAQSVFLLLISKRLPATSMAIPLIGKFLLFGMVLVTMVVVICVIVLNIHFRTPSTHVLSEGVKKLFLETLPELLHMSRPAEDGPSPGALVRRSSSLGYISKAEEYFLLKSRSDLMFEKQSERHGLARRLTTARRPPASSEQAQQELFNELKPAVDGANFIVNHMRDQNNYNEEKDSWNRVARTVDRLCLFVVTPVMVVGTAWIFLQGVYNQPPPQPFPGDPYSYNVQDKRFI
# human α7 nAChR, sequence (P36544 23-502): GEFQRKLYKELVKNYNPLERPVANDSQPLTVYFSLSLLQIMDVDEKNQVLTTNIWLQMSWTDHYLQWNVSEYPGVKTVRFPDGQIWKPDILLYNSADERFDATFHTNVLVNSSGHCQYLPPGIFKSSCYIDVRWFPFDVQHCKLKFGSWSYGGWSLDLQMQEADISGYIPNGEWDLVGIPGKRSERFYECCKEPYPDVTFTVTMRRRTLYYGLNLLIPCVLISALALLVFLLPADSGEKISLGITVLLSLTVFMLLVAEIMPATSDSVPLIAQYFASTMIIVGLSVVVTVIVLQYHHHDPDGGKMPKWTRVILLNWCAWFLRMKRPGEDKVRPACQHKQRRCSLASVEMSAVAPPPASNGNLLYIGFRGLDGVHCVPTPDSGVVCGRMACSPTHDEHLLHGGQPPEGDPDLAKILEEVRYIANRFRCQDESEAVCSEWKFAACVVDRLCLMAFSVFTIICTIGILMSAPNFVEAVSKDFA
# neuronal α4β2 nAChRs, sequence (P09483 31-630): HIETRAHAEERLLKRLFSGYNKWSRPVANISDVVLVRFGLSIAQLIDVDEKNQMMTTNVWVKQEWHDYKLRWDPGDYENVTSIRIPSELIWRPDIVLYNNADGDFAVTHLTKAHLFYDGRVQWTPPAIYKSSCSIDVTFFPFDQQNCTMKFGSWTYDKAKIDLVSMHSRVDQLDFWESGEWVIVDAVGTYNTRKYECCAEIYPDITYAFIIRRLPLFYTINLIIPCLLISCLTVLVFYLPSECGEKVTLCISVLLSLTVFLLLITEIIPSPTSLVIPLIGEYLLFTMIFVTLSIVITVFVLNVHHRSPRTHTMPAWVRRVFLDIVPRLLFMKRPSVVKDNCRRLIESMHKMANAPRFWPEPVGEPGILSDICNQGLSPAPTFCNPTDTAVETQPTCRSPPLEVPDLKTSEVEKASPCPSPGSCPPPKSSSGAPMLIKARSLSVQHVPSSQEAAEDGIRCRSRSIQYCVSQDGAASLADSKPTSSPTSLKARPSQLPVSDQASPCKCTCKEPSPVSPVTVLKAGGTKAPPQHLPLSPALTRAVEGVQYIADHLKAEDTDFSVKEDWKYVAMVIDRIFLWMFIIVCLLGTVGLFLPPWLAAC
# neuronal α4β2 nAChRs, sequence (P12390 25-500): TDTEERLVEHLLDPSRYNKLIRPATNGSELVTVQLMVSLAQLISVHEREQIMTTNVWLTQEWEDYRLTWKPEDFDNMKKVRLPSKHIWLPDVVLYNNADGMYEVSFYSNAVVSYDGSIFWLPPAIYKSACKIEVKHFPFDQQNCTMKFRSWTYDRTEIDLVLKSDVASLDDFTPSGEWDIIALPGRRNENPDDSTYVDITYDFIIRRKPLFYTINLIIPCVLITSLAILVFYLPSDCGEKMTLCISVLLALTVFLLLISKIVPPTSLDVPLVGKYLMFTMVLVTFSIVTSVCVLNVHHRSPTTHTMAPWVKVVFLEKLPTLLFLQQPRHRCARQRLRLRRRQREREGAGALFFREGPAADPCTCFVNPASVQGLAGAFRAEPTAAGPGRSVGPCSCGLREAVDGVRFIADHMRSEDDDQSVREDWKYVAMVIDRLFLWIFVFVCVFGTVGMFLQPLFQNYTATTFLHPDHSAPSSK
structure (smiles),measurement,setting,value
CCCc1c(C(=O)NC2CCN(Cc3ccccc3)CC2)cnn1-c1ccccc1 [compound 8],IC50,[1],2.9 µM
same,inhibition at 10 µM,[1],82.5%
same,IC50,[2],18.9 µM
same,inhibition at 10 µM,[3],1.3%
same,binding to the muscle-type nAChR,[4],no detectable binding
same,inhibition at 10 µM,[5],14.3%
same,Normalized % neuroprotection,[6],91.2%
same,Normalized % seizure,[6],8.8%
same,Seizure score (mean ± SD),[6],0.8 ± 1.3
same,concentration in brain,[7],9 µM
CN(CC1CCN(Cc2ccccc2)CC1)C(=O)c1cn(Cc2ccccc2Cl)nn1 [compound 7i],IC50,[2],3.8 µM
same,Normalized % neuroprotection,[6],93.4%
same,Normalized % seizure,[6],6.6%
same,Seizure score (mean ± SD),[6],0.6 ± 1.3
O=C(NCC1CCN(Cc2ccccc2)CC1)c1cn(Cc2cccc(Cl)c2)nn1 [compound 7],inhibition at 10 µM,[1],82.5%
same,inhibition at 10 µM,[3],18.8%
same,binding to the muscle-type nAChR,[4],no detectable binding
same,inhibition at 10 µM,[5],8.4%
CCCc1c(C(=O)NC2CCNCC2)cnn1-c1ccccc1 [8i],binding affinity to the α7 nAChR (in words),[1],completely abolished the binding affinity
CCCc1c(C(=O)NC2CCN(C)CC2)cnn1-c1ccccc1 [8h],binding affinity to the α7 nAChR (in words),[1],completely abolished the binding affinity
